# From patent US20230097866A1, “BACTERIAL TOPOISOMERASE INHIBITORS DERIVED FROM ISOMANNIDE” (Ohio State Innovation Foundation, priority 2020, published 2023)
# Read-outs that look alike come from different tables or passages of the source.
# Key:
# [1] = system: Escherichia coli ATCC 25922; test: MIC panel (Laboratory Specialists, Inc.), E. coli; format: cell-based; conditions: ATCC25922, read-out: MIC Escherichia coli ATCC 25922 (n = 2), Cmpd. 6, CLSI broth microdilution
# [2] = system: Klebsiella pneumoniae LSI-2999; test: MIC panel (Laboratory Specialists, Inc.), K. pneumoniae; format: cell-based; conditions: LSI2999, Cmpd. 6, CLSI broth microdilution
# hERG = hERG (Homo sapiens, UniProt Q12809); test: hERG IC50, IonWorks Barracuda (Charles River); conditions: 6 versus 24
# Excerpt: The design of these isomannide-detived NBTIs focused on enhanced polarity and modulation of basicity through the two electronegative oxygen atoms in the linker.
# [3] = molecular target: T1, Cav1.2 (L-type) Human Calcium Ion Channel (Homo sapiens, UniProt Q13936); test: Cav1.2 (L-type) QPatch CiPA assay; format: cell-based; conditions: mean, duplicate
# T1 construct: expressed in transfected cells
# T1 sequence (Q13936 whole entry): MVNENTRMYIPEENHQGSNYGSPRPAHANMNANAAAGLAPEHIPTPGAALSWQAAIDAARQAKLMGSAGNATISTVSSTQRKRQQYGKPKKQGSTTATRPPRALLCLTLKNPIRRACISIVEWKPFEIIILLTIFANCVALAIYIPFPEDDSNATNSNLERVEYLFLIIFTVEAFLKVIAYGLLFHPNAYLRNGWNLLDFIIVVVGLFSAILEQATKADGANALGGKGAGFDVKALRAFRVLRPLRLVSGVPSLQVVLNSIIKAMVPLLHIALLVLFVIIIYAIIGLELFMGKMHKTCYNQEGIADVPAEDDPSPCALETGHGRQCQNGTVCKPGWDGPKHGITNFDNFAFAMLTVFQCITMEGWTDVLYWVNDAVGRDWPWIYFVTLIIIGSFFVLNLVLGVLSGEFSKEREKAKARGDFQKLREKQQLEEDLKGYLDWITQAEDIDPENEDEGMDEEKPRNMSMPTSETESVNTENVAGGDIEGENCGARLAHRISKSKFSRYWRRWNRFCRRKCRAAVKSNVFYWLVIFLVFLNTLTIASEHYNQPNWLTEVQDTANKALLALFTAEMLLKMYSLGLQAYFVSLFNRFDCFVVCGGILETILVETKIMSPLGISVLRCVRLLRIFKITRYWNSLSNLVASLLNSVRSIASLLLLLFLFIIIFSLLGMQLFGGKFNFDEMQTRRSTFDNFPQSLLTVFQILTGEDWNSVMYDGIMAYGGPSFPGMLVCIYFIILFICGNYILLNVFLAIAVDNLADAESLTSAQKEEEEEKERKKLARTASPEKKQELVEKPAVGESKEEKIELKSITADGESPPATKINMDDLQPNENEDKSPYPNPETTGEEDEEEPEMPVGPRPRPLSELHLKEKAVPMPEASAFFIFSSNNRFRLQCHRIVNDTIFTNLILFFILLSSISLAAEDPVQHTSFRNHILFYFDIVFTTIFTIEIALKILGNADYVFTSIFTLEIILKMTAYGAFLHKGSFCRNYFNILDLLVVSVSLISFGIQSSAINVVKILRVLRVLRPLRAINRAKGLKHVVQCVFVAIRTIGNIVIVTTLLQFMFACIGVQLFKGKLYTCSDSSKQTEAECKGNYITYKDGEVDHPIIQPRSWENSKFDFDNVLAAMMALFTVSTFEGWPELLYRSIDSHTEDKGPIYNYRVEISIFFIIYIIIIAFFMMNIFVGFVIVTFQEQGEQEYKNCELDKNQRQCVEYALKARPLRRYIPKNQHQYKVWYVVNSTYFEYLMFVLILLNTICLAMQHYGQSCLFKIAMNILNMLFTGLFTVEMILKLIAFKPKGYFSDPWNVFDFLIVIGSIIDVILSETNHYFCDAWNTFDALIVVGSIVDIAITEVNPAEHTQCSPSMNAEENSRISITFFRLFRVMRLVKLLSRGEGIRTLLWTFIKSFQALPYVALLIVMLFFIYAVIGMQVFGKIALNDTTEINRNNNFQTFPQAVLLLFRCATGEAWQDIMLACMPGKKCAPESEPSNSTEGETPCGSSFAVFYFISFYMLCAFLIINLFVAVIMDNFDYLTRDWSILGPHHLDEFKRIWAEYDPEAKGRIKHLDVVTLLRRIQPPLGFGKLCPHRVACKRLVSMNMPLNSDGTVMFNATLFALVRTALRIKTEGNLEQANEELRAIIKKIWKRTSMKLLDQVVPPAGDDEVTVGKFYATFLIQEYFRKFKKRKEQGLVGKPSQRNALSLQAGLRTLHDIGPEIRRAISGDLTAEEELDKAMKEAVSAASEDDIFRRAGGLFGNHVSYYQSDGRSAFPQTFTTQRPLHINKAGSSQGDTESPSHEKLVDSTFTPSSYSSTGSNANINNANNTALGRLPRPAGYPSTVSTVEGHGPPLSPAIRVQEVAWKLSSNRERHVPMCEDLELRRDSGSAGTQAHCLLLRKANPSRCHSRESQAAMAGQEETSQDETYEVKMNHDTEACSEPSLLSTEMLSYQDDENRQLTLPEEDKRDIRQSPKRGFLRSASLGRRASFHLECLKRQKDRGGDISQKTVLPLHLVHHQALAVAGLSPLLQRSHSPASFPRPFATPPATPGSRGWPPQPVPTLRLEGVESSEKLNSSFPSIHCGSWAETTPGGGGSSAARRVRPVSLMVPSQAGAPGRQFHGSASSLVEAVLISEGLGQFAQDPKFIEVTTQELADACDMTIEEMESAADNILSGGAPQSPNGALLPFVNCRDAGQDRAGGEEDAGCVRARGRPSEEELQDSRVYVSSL
# T1 sequence (Q08289 whole entry partner): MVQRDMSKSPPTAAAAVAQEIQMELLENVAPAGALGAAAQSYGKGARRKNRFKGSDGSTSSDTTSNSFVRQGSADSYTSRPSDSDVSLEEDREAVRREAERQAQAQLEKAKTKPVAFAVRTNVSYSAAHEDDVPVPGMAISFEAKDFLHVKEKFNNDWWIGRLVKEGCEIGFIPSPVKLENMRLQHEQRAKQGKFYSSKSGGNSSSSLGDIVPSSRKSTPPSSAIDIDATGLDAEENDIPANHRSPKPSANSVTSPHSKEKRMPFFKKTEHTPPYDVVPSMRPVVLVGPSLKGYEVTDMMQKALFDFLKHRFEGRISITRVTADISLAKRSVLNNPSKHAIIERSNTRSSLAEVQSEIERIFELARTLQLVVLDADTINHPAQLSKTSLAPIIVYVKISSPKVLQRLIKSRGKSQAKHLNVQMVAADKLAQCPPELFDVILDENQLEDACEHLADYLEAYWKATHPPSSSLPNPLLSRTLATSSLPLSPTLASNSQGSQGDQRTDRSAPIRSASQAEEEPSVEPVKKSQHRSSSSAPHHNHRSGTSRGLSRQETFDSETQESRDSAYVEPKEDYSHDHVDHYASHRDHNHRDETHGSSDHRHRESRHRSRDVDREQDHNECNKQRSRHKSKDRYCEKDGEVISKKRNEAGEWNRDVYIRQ
# T1 sequence (P54289 25-946 partner limits assumed): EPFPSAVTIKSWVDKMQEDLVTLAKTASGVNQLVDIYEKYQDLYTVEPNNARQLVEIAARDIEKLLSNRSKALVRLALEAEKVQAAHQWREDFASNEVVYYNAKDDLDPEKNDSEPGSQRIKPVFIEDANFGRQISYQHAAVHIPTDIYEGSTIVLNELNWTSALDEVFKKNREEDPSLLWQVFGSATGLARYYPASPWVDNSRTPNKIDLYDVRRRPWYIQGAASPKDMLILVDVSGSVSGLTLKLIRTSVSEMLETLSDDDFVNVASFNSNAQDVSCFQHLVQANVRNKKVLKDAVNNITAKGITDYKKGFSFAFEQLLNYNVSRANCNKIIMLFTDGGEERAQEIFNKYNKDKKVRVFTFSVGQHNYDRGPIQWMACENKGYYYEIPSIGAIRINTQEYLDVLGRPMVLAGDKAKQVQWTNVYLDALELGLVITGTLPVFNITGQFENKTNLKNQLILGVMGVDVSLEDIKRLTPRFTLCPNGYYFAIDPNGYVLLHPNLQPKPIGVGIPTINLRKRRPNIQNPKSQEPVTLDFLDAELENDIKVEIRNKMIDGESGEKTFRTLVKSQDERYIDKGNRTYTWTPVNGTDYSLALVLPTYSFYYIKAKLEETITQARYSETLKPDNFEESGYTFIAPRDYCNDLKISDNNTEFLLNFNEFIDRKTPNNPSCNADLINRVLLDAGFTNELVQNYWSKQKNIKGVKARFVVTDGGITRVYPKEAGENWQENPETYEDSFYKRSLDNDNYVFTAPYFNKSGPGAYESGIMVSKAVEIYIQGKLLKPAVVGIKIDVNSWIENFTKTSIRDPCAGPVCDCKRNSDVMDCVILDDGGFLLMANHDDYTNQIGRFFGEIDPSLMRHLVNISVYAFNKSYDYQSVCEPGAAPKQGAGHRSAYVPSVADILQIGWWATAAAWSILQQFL
# T1 sequence (P54289 947-1103 partner limits assumed): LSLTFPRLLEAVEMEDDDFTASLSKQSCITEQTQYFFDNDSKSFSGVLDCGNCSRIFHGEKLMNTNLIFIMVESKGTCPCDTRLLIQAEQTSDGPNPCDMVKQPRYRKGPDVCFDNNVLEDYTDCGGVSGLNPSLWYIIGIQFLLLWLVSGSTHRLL
# Excerpt: Early drug discovery programs commonly assess hERG inhibition as the only indicator of potential cardiovascular safety concerns. Researchers have recently recommended a more rigorous evaluation of multiple cardiac ion channels to provide a more comprehensive cardiovascular risk assessment (Fermini, B., et al., A New Perspective in the Field of Cardiac Safety Testing through the Comprehensive In Vitro Proarrhythmia Assay Paradigm. J. Biomolec. Screening 2016, 21, 1-11). Given the promising initial results for 6, further evaluation was undertaken (in duplicate) in a Comprehensive in vitro Proarrhythmia Assay (CiPA) eight assay panel run on the QPatch HT (Sophion, Denmark) automated patch clamp system at three concentrations (3, 30, and 100 μM). All data were filtered for seal quality, seal drop, and current amplitude. A stock solution of the test compound at 30 mM concentration was prepared in DMSO.
# The parameters measured were the maximum inward current evoked on stepping to 10 mV from the test pulse. The peak current amplitude was calculated before and after compound addition and the amount of block was assessed by dividing the Test compound current amplitude by the Control current amplitude. Control is the mean hCav1.2 current amplitude collected 15 seconds at the end of the control; Test Compound is the mean hCav1.2 current amplitude collected in the presence of test compound at each concentration. The positive control was nifedipine.
# in vitro = in vitro ADME; conditions: pH 7.4, 1 μM, read-out: microsomal half-life
# Method: The test compound at 1 μM was pre-incubated with pooled liver microsomes in phosphate buffer (pH 7.4) for 5 minutes in a 37° C. shaking water bath. The reaction was initiated by adding NADPH-generating mixture (NADP+, glucose-6-phospate, glucose-6-phosphate dehydrogenase) and incubated for 0, 15, 30, 45, and 60 minutes. The reaction was stopped by transferring aliquots of the incubation mixture to acetonitrile/methanol. Samples were centrifuged, and supernatants analyzed by LCMS. The half-life was calculated from the slope of the initial linear range of the logarithmic curve of compound remaining %) vs. time, assuming first order kinetics. In addition, the intrinsic clearance (Clint) was calculated from the half-life.
# CYP2C19 = molecular target: T2, CYP2C19 (Homo sapiens, UniProt P33261); test: CYP450 inhibition in human liver microsomes, CYP2C19; format: in vitro ADME; conditions: 10 μM
# T2 construct: incubated with human liver microsomes (mixed gender, pool of 50 donors, 0.1 mg/mL); from tissue; host or cells: human liver microsomes, pool of 50 donors
# T2 sequence (P33261 whole entry): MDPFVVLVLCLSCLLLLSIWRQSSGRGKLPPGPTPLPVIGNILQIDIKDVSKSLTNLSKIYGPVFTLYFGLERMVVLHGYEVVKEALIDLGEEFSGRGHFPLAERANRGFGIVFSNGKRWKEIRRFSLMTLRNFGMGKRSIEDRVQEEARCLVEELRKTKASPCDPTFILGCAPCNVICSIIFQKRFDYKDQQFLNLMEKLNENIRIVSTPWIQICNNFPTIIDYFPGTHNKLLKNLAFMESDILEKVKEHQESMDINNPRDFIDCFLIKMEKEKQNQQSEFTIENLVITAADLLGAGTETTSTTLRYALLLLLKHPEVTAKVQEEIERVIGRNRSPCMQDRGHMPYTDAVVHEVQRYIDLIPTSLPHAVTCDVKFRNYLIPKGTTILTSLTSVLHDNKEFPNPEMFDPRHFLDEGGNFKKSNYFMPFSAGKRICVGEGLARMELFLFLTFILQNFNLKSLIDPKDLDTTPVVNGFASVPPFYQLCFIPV
# Method: (§1) CYP450 inhibition assays was conducted using individual enzyme substrates and inhibitors instead of a cocktail to avoid interferences. CYP450 isoforms tested included the following: CYP1A2, CYP2B6, CYP2C8, CYP2C9, CYP2C19, CYP2D6, and CYP3A4. Each test compound was screened at a final concentration of 10 μM. Each test compound was incubated with human liver microsomes (mixed gender, pool of 50 donors, 0.1 mg/mL), CYP450-selective probe substrates, and co-factors (NADPH, MgCl2) in phosphate buffer (pH 7.4) for 10-30 min in a 96-well plate at 37° C. The reactions were stopped by transferring the reaction mixture to acetonitrile/methanol. Samples were mixed and centrifuged, and the supernatants analyzed by LC-MS/MS to quantify percent inhibition relative to vehicle control.
# CYP3A4 = molecular target: T3, CYP3A4 (Homo sapiens, UniProt P08684); test: CYP450 inhibition in human liver microsomes, CYP3A4; format: in vitro ADME; conditions: both sexes
# T3 construct: incubated with human liver microsomes (mixed gender, pool of 50 donors, 0.1 mg/mL); from tissue; host or cells: human liver microsomes, pool of 50 donors
# T3 sequence (P08684 whole entry): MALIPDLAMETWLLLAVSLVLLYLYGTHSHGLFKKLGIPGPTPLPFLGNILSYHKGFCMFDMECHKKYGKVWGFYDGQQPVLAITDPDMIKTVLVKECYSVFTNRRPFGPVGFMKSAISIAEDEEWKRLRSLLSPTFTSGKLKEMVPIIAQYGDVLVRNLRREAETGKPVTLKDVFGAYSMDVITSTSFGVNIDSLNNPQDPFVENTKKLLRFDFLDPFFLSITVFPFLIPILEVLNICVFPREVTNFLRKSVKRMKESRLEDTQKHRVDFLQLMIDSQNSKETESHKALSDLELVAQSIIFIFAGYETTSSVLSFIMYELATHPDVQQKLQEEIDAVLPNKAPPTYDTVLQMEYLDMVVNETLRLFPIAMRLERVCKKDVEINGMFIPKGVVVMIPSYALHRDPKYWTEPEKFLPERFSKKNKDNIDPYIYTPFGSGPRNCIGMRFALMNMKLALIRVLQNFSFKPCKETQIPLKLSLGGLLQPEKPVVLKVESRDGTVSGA
# Method: as §1, with “Each test compound was screened at a final concentration of 10 μM.” left out
# [4] = liver microsomes, pH 7.4, probe midazolam, Exp. 1, read-out: CYP3A4 (midazolam hydroxylase) % of control (Exp. 1)
# [5] = liver microsomes, pH 7.4, probe midazolam, Exp. 2, read-out: CYP3A4 (midazolam hydroxylase) % of control (Exp. 2)
# [6] = liver microsomes, pH 7.4, probe midazolam, Exp. 3, read-out: CYP3A4 (midazolam hydroxylase) % of control (Exp. 3)
compound,measurement,setting,value
"COc1ccc2ncc(F)c(CC[C@@]3(O)CO[C@@H]4[C@@H](NCc5cc6c(cn5)OCCO6)CO[C@@H]43)c2n1 [Compound 6, (3R, 3aS,6S,6aR)-6-(((2,3-dihydro-[1,4]dioxino[2,36-c]pyridin-7-yl)methyl)amnino)-3-(2-(3-fluoro-6-methoxy-1,5-naphthyridin-4-yl)ethyl)hexahydrofuro[3,2-b]furan-3-ol]",MIC,[1],64 µg/mL
same,MIC,[2],128 µg/mL
same,hERG IC50 higher than benzodioxine 24,hERG,ca. 3 fold
same,% Inhibition Cav1.2 (peak current),[3]; 3 μM,4.7%
same,% Inhibition Cav1.2 (peak current),[3]; 30 μM,23.3%
same,% Inhibition Cav1.2 (peak current),[3]; 100 μM,24.9%
same,half-life,in vitro; human microsomes,6 min
same,half-life,in vitro; mouse microsomes,3 min
same,CYP2C19 inhibition,CYP2C19,Less than 50%
same,activity at 3 µM,"CYP3A4; human liver microsomes, pH 7.4, probe midazolam (midazolam hydroxylase activity), Exp. 1, read-out: CYP3A4 (midazolam hydroxylase) % of control (Exp. 1)",74.3%
same,activity at 3 µM,"CYP3A4; human liver microsomes, pH 7.4, probe midazolam (midazolam hydroxylase activity), Exp. 2, read-out: CYP3A4 (midazolam hydroxylase) % of control (Exp. 2)",77.2%
same,activity at 3 µM,"CYP3A4; human liver microsomes, pH 7.4, probe midazolam (midazolam hydroxylase activity), Exp. 3, read-out: CYP3A4 (midazolam hydroxylase) % of control (Exp. 3)",60.4%
same,activity at 10 µM,"CYP3A4; human liver microsomes, pH 7.4, probe midazolam (midazolam hydroxylase activity), 10 μM, Exp. 3, read-out: CYP3A4 (midazolam hydroxylase) % of control (Exp. 3)",74.5%
same,activity at 0.1 µM,CYP3A4; [4],116%
same,activity at 0.1 µM,CYP3A4; [5],108%
same,activity at 0.1 µM,CYP3A4; [6],97%
same,activity at 0.3 µM,CYP3A4; [4],89.9%
same,activity at 0.3 µM,CYP3A4; [5],113%
same,activity at 0.3 µM,CYP3A4; [6],99.2%
same,activity at 1 µM,CYP3A4; [4],60.4%
same,activity at 1 µM,CYP3A4; [5],89.8%
same,activity at 1 µM,CYP3A4; [6],89.9%
same,activity at 10 µM,"CYP3A4; liver microsomes, pH 7.4, probe midazolam, 10 μM, Exp. 1, read-out: CYP3A4 (midazolam hydroxylase) % of control (Exp. 1)",49.5%
same,activity at 10 µM,"CYP3A4; liver microsomes, pH 7.4, probe midazolam, 10 μM, Exp. 2, read-out: CYP3A4 (midazolam hydroxylase) % of control (Exp. 2)",82.3%
same,inhibition at 10 µM,"CYP3A4; liver microsomes, pH 7.4, probe midazolam, 10 μM, screening assay",56%
same,IC50,"CYP3A4; liver microsomes, pH 7.4, probe midazolam, concentration-response assay in triplicate",> 10 µM
